Publication PMC9120017, “Inhibition mechanism of the chloride channel TMEM16A by the pore blocker 1PBC” (Nature Communications, 2022)
pIC50: −log10 of the molar value. Where two headings read alike, the source gives them in different places.

Target: T1, mouse TMEM16A mutant Y598A (Mus musculus, UniProt Q8BHY3, Y598A)
T1 construct: expressed in transfected cells; host or cells: HEK293T
T1 sequence (Q8BHY3 1-960 Y598A): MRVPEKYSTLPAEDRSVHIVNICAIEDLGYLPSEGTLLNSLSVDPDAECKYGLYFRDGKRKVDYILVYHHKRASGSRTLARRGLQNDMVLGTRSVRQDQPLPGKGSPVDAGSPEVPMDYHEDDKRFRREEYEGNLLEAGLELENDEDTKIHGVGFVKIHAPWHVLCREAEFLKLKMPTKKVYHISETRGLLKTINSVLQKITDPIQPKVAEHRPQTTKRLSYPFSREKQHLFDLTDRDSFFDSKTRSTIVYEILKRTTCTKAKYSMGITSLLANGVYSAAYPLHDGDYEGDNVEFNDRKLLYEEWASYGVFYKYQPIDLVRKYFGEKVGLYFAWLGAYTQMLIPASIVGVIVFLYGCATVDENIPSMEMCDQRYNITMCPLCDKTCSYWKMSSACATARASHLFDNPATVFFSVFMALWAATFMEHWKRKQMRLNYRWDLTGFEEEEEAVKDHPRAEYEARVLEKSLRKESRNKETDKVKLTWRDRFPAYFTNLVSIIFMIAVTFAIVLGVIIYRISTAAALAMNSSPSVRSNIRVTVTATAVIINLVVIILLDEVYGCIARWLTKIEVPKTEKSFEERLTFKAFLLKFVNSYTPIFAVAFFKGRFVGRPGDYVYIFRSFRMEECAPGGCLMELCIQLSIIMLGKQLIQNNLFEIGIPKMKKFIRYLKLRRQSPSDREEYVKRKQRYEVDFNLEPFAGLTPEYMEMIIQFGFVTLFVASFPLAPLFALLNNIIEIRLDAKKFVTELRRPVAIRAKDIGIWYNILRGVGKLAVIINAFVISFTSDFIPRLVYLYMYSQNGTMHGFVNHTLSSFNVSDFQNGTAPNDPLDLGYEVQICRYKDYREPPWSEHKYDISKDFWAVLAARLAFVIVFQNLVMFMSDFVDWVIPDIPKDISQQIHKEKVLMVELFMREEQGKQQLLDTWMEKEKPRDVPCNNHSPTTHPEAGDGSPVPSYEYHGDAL
Test: Inside-out patch recording of 1PBC block, mutant Y598A
Assay type: cell-based
Settings: for remaining activity at 30 µM: 1PBC conc 30; for remaining activity at 30 µM / remaining activity at 3 µM / remaining activity at 10 µM: read-out: relative current in 1PBC (avr); for remaining activity at 3 µM: 1PBC conc 3; for remaining activity at 10 µM: 1PBC conc 10
Protocol: HEK293T cells (ATCC CRL-1573) were maintained in Dulbecco’s modified Eagle’s medium (DMEM; Sigma-Aldrich) supplemented with 10 U ml^−1 penicillin, 0.1 mg ml^−1 streptomycin (Sigma-Aldrich), 2 mM L-glutamine (Sigma-Aldrich), and 10% FBS (Sigma-Aldrich) in a humidified atmosphere containing 5% CO2 at 37 °C. HEK293S GnTI^− cells (ATCC CRL-3022) were maintained in HyClone HyCell TransFx-H medium (GE Healthcare) supplemented with 10 U ml^−1 penicillin, 0.1 mg ml^−1 streptomycin, 4 mM L-glutamine, 0.15% poloxamer 188 (Sigma-Aldrich), and 1% FBS in an atmosphere containing 5% CO2 at 185 rpm at 37 °C. The ac splice variant of mouse TMEM16A (UniProt ID: Q8BHY3), mouse TMEM16B (UniProt ID: Q8CFW1), or mouse TMEM16F (UniProt ID: Q6P9J9) bearing a 3C cleavage site, a Venus YFP, a Myc tag, and a Streptavidin-binding peptide (SBP) downstream of the open reading frame in a modified pcDNA3.1 vector (Invitrogen) were used as described previously[21],[31]. Mutations were introduced using a modified QuikChange method[58] and were verified by sequencing.
HEK293T cells were transfected with 3–4 μg DNA per 6 cm Petri dish using the calcium phosphate co-precipitation method and were used within 24–96 h after transfection. Recordings were performed on inside-out patches excised from HEK293T cells expressing the construct of interest. Patch pipettes were pulled from borosilicate glass capillaries (O.D. 1.5 mm, I.D. 0.86 mm, Sutter Instrument) and were fire-polished with a microforge (Narishige) before use. Pipette resistance was typically 3–8 MΩ when filled with the recording solutions detailed below. Seal resistance was typically 4 GΩ or higher. Voltage-clamp recordings were made using Axopatch 200B, Digidata 1550, and Clampex 10.7 (Molecular Devices). Analog signals were filtered with the in-built 4-pole Bessel filter at 10 kHz and were digitized at 20 kHz. Solution exchange was achieved using a gravity-fed system through a theta glass pipette mounted on an ultra-fast piezo-driven stepper (Siskiyou). […] All recordings were performed at 20 °C.
A symmetrical ionic condition was used throughout. Stock solution with Ca^2+-EGTA contained 150 mM NaCl, 5.99 mM Ca(OH)2, 5 mM EGTA, and 10 mM HEPES at pH 7.40. Stock solution with EGTA contained 150 mM NaCl, 5 mM EGTA, and 10 mM HEPES at pH 7.40. Free Ca^2+ concentrations were adjusted by mixing the stock solutions at the required ratios calculated using the WEBMAXC program (http://web.stanford.edu/~cpatton/webmaxcS.htm). Patch pipettes were filled with the stock solution with Ca^2+-EGTA, which has a free Ca^2+ concentration of 1 mM. 1PBC (ChemBridge) stock was reconstituted in anhydrous DMSO (Sigma-Aldrich) at 100 mM and stored at −20 °C. Working solutions with 1PBC were prepared by serial dilution. Unless otherwise stated, experiments were performed at a saturating Ca^2+ concentration as shown in Supplementary Table 1 and the primary data were corrected for current rundown as described previously[21],[25].
Concentration-response relations, obtained from the ratio of the I-V plots before and after the application of the blocker, were fitted to the Hill equation,1 I/Imax=1/1+IC50/[blocker]^h where I/Imax is the normalized current responses, IC50 defines the concentration at which inhibition is at its half-maximum, and h is the Hill coefficient.

N#Cc1c(C(F)(F)F)cc(O)n2c1nc1ccccc12 [1PBC]
remaining activity at 30 µM (60 mV): 13.4%
log-fold IC50 (change of mutant vs WT) (80 mV): 0.1976
pIC50 (80 mV, 2 µM Ca2+): 5.52
remaining activity at 3 µM (80 mV): 48.1%
remaining activity at 10 µM (80 mV): 23.9%
remaining activity at 30 µM (80 mV): 14.5%
pIC50 (100 mV, 2 µM Ca2+): 5.51
remaining activity at 3 µM (100 mV): 48%
remaining activity at 10 µM (100 mV): 24.1%
remaining activity at 30 µM (100 mV): 15.1%
pIC50 (120 mV, 2 µM Ca2+): 5.50
remaining activity at 3 µM (120 mV): 47.7%
remaining activity at 10 µM (120 mV): 25.3%
remaining activity at 30 µM (120 mV): 16.4%
pIC50 (140 mV, 2 µM Ca2+): 5.42
remaining activity at 3 µM (140 mV): 53.3%
remaining activity at 10 µM (140 mV): 27.9%
remaining activity at 30 µM (140 mV): 17%
pIC50 (-20 mV, 2 µM Ca2+): 5.24
remaining activity at 3 µM (-20 mV): 66.7%
remaining activity at 10 µM (-20 mV): 35.5%
remaining activity at 30 µM (-20 mV): 15.5%
pIC50 (-40 mV, 2 µM Ca2+): 5.15
remaining activity at 3 µM (-40 mV): 71.1%
remaining activity at 10 µM (-40 mV): 40.1%
remaining activity at 30 µM (-40 mV): 19.4%
pIC50 (-60 mV, 2 µM Ca2+): 5.05
remaining activity at 3 µM (-60 mV): 75.3%
remaining activity at 10 µM (-60 mV): 47.3%
remaining activity at 30 µM (-60 mV): 21.7%
pIC50 (-80 mV, 2 µM Ca2+): 4.95
remaining activity at 3 µM (-80 mV): 79.4%
remaining activity at 10 µM (-80 mV): 53.2%
remaining activity at 30 µM (-80 mV): 26.4%
pIC50 (-100 mV, 2 µM Ca2+): 4.87
remaining activity at 3 µM (-100 mV): 81.5%
remaining activity at 10 µM (-100 mV): 59.2%
remaining activity at 30 µM (-100 mV): 29.3%
pIC50 (-120 mV, 2 µM Ca2+): 4.80
remaining activity at 3 µM (-120 mV): 85.1%
remaining activity at 10 µM (-120 mV): 62.4%
remaining activity at 30 µM (-120 mV): 33%
pIC50 (-140 mV, 2 µM Ca2+): 4.74
remaining activity at 3 µM (-140 mV): 87.9%
remaining activity at 10 µM (-140 mV): 64.1%
remaining activity at 30 µM (-140 mV): 36.6%
pIC50 (Y598A, V 0 mV): 5.30
pIC50 (Y598A, V 20 mV): 5.36
pIC50 (Y598A, V 40 mV): 5.45
pIC50 (Y598A, V 60 mV): 5.50
pIC50 (Y598A, V 80 mV): 5.52
pIC50 (Y598A, V 100 mV): 5.51
pIC50 (Y598A, V 120 mV): 5.50
pIC50 (Y598A, V 140 mV): 5.42
pIC50 (Y598A, V -20 mV): 5.24
pIC50 (Y598A, V -40 mV): 5.15
pIC50 (Y598A, V -60 mV): 5.05
pIC50 (Y598A, V -80 mV): 4.95
pIC50 (Y598A, V -100 mV): 4.87
pIC50 (Y598A, V -120 mV): 4.80
pIC50 (Y598A, V -140 mV): 4.74
